Source: PMC9412534, “Diindolylmethane Derivatives: New Selective Blockers for T-Type Calcium Channels” (Membranes, 2022)

Legend:
human CaV3.1 = biological target: T1, human CaV3.1 (Homo sapiens, UniProt O43497); test: T-type calcium channel window current FLIPR assay, CaV3.1; type: cell-based; conditions: n = 3, read-out: IC50 CaV3.1 (LVA CaVs)
T1 construct: expressed in transfected cells; host or cells: HEK 293 T cells, transient transfection (FuGENE HD)
Experimental: (§1) The human embryonic kidney 293 (HEK 293) cell lines (from Emmanuel Bourinet, Montpellier, France) stably expressing CaV3.2 or CaV3.3 were cultured under 5% carbon dioxide at 37 °C in Dulbecco’s Modified Eagle Medium (DMEM) Glutamax (Gibco, Life Technologies, Carlsbad, CA, USA) supplemented with 10% (v/v) fetal bovine serum (FBS), 100 U/mL penicillin, 100 μg/mL streptomycin (Gibco, Life Technologies, Carlsbad, CA, USA), and 750 μg/mL geneticin (G418) (Gibco, Life Technologies). The Chinese Hamster Ovary (CHO) cell lines (Emmanuel Bourinet, Montpellier, France) expressing CaV3.1 were cultured under 5% carbon dioxide at 37 °C in Alpha Minimum Essential Media (MEM) Glutamax (Gibco, Life Technologies), supplemented with 10% (v/v) fetal bovine serum (FBS) and 300 μg/mL geneticin (G418) (Gibco, Life Technologies). The human neuroblastoma SH-SY5Y cells (Victor Diaz, Goettingen, Germany) were cultured under 5% carbon dioxide at 37 °C in RPMI 1640 antibiotic-free medium (Invitrogen, Carlsbad, CA, USA), supplemented with 15% FBS and 2 mM GlutaMAX™ (Invitrogen). D-PBS (Gibco, Life Technologies) was used to wash the cells, and 0.25% Trypsin-EDTA (Gibco, Life Technologies) was used to detach cells from the flask surface. They were split in a ratio of 1:5 (ideally 1000 cells/cm^2) when they reached 70–80% confluence (every 2–3 days). Transiently transfected CaV3.1 HEK293 T cells were used in FLIPR Assays. HEK 293 T cells were cultured under 5% carbon dioxide at 37 °C in DMEM supplemented with 10% (v/v) FBS. D-PBS was used to wash the cells, and 0.25% Trypsin-EDTA was used to detach cells from the flask surface. The cells were split and seeded at 6 million cells per T175 flask, to reach 70–80% confluence after 24 h. The next day, 12 μg DNA of human CaV3.1 was incubated in 900 μL serum-free DMEM with 36 μL FuGENE HD transfection reagent (Promega Corporation, Madison, WI, USA) (1:3 DNA/Fugene ratio) for 20 min, and then the mixture was added into the cell flask slowly, drop by drop. After the transfection, the cells were cultured under 5% carbon dioxide at 37 °C for 24 h and then moved to a 28 °C incubator.
HEK 293 cells stably expressing CaV3.2 or CaV3.3 were seeded into 384-well black wall clear bottom plates (Corning) at a density of 30,000 cells per well. Transiently transfected CaV3.1HEK293 T cells were seeded into 384-well black wall clear bottom plates at a density of 60,000 cells per well. Once the cells reached 90–95% confluence after 24 h, the media were removed from the wells and replaced with 20 μL of 10% calcium 4 dye (Molecular Devices, Sunnyvale, CA, USA) in HBSS-HEPES (containing 5 mM KCl, 10 mM HEPES, 140 mM NaCl, 10 mM glucose, and 0.5 mM CaCl2, pH 7.4) with 0.1% bovine serum albumin (BSA). The cells were incubated for 30 min at 37 °C in the presence of 5% carbon dioxide. Each well on the reagent plates for the first addition contained 15 μL different concentrations of compounds dissolved in HBSS-HEPES containing 0.1% BSA and <0.5% DMSO and was incubated for 20 min after loaded. Positive and negative controls contained 15 μL of HBSS-HEPES (0.1% BSA) alone. The plates were placed in the FLIPR^TETRA (Molecular Devices, Sunnyvale, CA, USA) programmed to measure maximum fluorescence intensity following a second addition of the agonist 5 mM CaCl2. The fluorescence readings were recorded and converted as described previously, and HBSS-HEPES (0.1% BSA) was used in the second addition as a negative control.

CaV2.2 = biological target: T2, CaV2.2 (Homo sapiens, UniProt Q00975); test: HVA N-type calcium channel FLIPR assay in SH-SY5Y cells; type: cell-based; conditions: 10 µM nifedipine present, n = 3, read-out: IC50 CaV2.2 (HVA CaVs)
T2 construct: endogenous in cells; host or cells: SH-SY5Y human neuroblastoma cells
Experimental: as §1
SH-SY5Y cells were seeded into 384-well black wall clear bottom plates at a density of 15,000 cells per well, resulting in 90–95% confluence after 24 h. The media were then removed from the wells and replaced with 20 μL of 10% calcium 4 dye (Molecular Devices) in physiological salt solution (PSS) (containing 5.9 mM KCl, 1.4 mM MgCl2, 10 mM HEPES, 1.2 mM NaH2 PO4, 5 mM NaHCO3, 140 mM NaCl, 11.5 mM glucose, and 1.8 mM CaCl2, pH 7.4) with 0.1% BSA. As reported, for N-type calcium channel FLIPR assays the cells were pre-incubated with 10 µM nifedipine added in the dye to ensure full inhibition of L-type calcium responses. For L-type calcium channel FLIPR assays, the cells were pre-incubated with 1 µM CVID added in the dye to ensure full inhibition of N-type calcium responses. Positive control on the first reagent plate contained 15 μL of PSS (0.1% BSA), whereas PSS (0.1% BSA) containing 1 µM CVID and 10 µM nifedipine (final concentration) was used as a negative control. The fluorescence readings were recorded and converted as described previously, and agonist containing 90 mM KCl + 5 mM CaCl2 was used in the second addition.

T1 sequence (O43497 whole entry): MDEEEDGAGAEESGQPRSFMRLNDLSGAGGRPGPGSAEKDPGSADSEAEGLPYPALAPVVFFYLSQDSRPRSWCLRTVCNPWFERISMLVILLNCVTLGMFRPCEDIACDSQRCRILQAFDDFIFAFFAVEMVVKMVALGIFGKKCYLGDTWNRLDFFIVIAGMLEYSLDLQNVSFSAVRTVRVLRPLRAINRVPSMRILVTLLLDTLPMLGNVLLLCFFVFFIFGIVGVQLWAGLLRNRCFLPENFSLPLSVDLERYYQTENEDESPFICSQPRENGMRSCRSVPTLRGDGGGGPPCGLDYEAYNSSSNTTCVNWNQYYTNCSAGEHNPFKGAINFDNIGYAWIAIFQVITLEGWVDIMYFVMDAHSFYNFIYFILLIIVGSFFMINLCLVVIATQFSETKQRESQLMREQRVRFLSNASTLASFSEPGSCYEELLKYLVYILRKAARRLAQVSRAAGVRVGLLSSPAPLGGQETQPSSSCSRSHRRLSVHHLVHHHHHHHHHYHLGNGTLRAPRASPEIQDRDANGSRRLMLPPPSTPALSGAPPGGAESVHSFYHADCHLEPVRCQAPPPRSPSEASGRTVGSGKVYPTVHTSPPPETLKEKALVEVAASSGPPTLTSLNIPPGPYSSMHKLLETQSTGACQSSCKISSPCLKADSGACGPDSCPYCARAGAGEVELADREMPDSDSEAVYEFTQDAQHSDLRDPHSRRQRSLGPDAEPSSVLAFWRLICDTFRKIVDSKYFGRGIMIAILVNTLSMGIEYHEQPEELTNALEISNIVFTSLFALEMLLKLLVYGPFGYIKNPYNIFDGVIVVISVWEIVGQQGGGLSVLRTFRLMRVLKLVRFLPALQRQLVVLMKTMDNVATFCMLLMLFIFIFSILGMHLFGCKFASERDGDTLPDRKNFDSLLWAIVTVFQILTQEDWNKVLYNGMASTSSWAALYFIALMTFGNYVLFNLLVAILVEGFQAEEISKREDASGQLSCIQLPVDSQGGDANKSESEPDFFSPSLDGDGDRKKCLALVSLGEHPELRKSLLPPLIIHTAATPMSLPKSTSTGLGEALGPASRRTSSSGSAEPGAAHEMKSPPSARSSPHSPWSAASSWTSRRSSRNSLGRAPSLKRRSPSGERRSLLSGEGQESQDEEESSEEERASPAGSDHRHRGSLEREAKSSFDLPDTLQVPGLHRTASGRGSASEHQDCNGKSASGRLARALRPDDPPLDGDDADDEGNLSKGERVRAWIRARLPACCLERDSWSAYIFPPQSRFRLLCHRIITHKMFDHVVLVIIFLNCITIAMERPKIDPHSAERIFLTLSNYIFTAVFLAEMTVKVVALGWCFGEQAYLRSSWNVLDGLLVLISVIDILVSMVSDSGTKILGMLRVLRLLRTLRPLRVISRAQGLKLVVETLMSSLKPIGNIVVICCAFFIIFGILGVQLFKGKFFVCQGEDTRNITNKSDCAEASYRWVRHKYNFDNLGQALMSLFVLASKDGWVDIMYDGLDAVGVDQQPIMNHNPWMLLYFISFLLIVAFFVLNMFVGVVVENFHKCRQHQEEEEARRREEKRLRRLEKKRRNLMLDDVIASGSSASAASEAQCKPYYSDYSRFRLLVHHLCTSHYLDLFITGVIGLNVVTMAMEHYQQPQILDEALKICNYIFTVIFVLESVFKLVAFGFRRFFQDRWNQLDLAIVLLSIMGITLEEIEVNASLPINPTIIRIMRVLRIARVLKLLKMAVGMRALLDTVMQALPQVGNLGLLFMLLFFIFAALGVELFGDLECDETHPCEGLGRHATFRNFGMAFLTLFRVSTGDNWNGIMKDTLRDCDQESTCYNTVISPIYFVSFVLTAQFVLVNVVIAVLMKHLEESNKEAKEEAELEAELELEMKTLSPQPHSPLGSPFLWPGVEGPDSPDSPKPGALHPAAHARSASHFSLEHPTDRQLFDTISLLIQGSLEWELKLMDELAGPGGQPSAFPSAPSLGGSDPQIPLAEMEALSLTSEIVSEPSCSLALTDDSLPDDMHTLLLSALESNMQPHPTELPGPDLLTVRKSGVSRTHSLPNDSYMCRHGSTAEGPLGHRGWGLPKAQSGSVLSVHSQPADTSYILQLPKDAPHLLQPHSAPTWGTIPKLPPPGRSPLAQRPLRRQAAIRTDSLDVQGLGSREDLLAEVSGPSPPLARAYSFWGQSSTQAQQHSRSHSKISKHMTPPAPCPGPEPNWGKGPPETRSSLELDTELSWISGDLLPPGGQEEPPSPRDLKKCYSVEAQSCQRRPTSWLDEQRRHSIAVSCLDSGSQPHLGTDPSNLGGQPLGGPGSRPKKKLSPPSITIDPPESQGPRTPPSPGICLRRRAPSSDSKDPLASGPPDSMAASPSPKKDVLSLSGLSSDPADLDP

IC50 (human CaV3.1) [µM]	IC50 (CaV2.2) [µM]	SMILES
158 ± 11.1	119 ± 6.51	O=C(c1c[nH]c2ccccc12)c1c[nH]c2ccccc12 [DIM-one, 3,3′-diindolylmethanone]
53.5 ± 2	> 200	O=C(c1c[nH]c2cc(Br)ccc12)c1c[nH]c2cc(Br)ccc12 [IV]
> 200	56.7 ± 2.61	c1ccc2c(Cc3c[nH]c4ccccc34)c[nH]c2c1 [DIM, 3,3′-diindolylmethane, reference compound]

SMILES	IC50 (human CaV3.1) [µM]	IC50 (CaV2.2) [µM]
O=C(c1cn(Cc2ccccc2)c2ccccc12)c1cn(Cc2ccccc2)c2ccccc12 [IX, bis(1-benzyl-1H-indol-3-yl)methanone]	35.1 ± 1.05	82 ± 5.3
